Read-outs that look alike come from different tables or passages of the source.

The source of these data is patent publication US10745663B2, “Methods for modulating production profiles of recombinant proteins” (ARES TRADING S.A., priority 2015, dated 2020).

Series [1] concerns CHO-S cells expressing IgG1 mAb1. The series is classed as cell-based, Chinese hamster. To be noted: Spin tubes. On the procedure: (§1) Assays were performed with 2 CHO cell lines: • CHO-S cells expressing IgG1 mAb1, herein “Cells mAb1” or “mAb1 cells”. “mAb1” is a fully human monoclonal antibody directed against a soluble protein. Its isoelectric point (pI) is about 8.20-8.30. • CHO-K1 cells expressing IgG1 mAb2, herein “Cells mAb2” or “mAb2 cells”. “mAb2” is a humanised monoclonal antibody directed against a receptor found on the cell membrane. Its isoelectric point (pI) is about 9.30.
(§2) Cells expressing mAb2 were inoculated at 0.2×10^6 cells per milliliter (mL), whereas cells expressing mAb1 were inoculated at 0.3×10^6 cells per mL.
(§3) All assays were performed in fed-batch culture. The host cells were cultured in fed-batch system either in microplates (“Deep well plate”) or in Spin Tubes®, and incubated at 36.5° C., 90% relative humidity, 5% CO2 and 320 rpm shaking during 14 days.
(§4) Viable cell density and viability were measured with the Guava easyCyte® flow cytometer or with the ViCell.
(§5) Antibody titres were measured either with the fortéBIO Octet® or with Biacore C®.
(§6) Glycosylation profiles were established by capillary gel electrophoresis with laser-induced fluorescence (CGE-LIF). Dosages of aggregates and fragments were performed respectively via Size Exclusion High Performance Liquid Chromatography (SE-HPLC) and via SDS-capillary gel electrophoresis.
(§7) The efficacy of DIDS was also tested in Spin tubes at concentrations around 40 μM (41 μM) and/or around 85 μM (82 μM for mAb1 and 87 μM for mAb2). These concentrations are not toxic for the host cells expressing the antibodies mAb1 and mAb2 and allowed to obtain an important increase of the cell density and the titre of the antibody mAb1 (FIG. 3). As expected for the cells expressing the antibody mAb1, the viable cell density and the specific production increase in the presence of DIDS, which allowed at DIDS concentration of 82 μM to multiply the titre by factor 1.4 comparing to the control (FIGS. 3A-3D). […] Similar results are observed for mAb2: DIDS allowed the increase of the specific productivity of the host cells expressing the antibodies mAb2 (about 20% increase at day 10), and is able to maintain the viability of the cells for about 10 days (FIGS. 3E-H).

The subject of series [2] is CHO-K1 cells expressing IgG1 mAb2. The series is classed as cell-based, Chinese hamster. The procedure:
as §1, §2, §3, §4, §5, §6, §7

Series [3] deals with CHO-S cells expressing IgG1 mAb1. The experiment in a line: Fed-batch cell culture in microplates, cells expressing mAb1, with DIDS. It counts as cell-based, Chinese hamster. The procedure: as §1, §2, §3, §4, §5, §6
The host cells expressing the antibody mAb1 were cultured in presence of DIDS at concentrations ranging from 0.4 μM to 83 μM. The cell density and the viability were measured during the culture, whereas the titre was measured on day 14 (FIGS. 1A-1C). Addition of DIDS in the culture medium allowed increase of viable cell density and the titre. Specifically the concentration of 83 μM of DIDS allowed to double the cell density at day 7 (WD7) and to multiply the titre by factor 1.4 at the end of the culture process at day 14 (WD14). The viability was maintained, compared to the control, until day 12.

In series [4] the test system is recombinant CHO cells. To be noted: batch culture, end of the production run (after 8 days of culture); cited from earlier work.
Series [5] relates to recombinant CHO cells. The note with it: perfusion batch culture, within 6 days of treatment; cited from earlier work.
[6] abbreviates: in the presence of DIDS (41 μM, 82 μM).

Take `O=S(=O)([O-])c1cc(N=C=S)ccc1/C=C/c1ccc(N=C=S)cc1S(=O)(=O)[O-].[Na+].[Na+]` [DIDS, 4,4′-diisothiocyanostilbene-2,2′-disulfonic acid]: the “titre multiplied by factor” value in series [1] (82 μM DIDS, comparing to the control) amounted to 1.4. Besides, the “toxicity for the host cells expressing mAb1” value in series [1] (DIDS 41 μM and 82 μM) was “not toxic”. In series [1] (setting [6]), the specific production entry was “increase” and the viable cell density entry is “increase”. Also, in series [2] (DIDS around 40 μM (41 μM) and/or 87 μM, Spin tubes), the “toxicity for the host cells expressing mAb2” value is recorded as “not toxic”. Also, the “time for which viability of the cells is maintained” value in series [2] (Spin tubes, mAb2 cells) is on record as “about 10 days”. The “increase of the specific productivity” value in series [2] (day 10, Spin tubes, mAb2 cells) is on record as “about 20%”. Further, in series [3] (83 μM DIDS, day 7 (WD7), microplates, versus control), the cell density result is given as “double”. Further, the “titre multiplied by factor” value in series [3] (83 μM DIDS, end of culture day 14 (WD14), microplates, versus control) was determined as 1.4. For the same molecule, the viability result in series [3] (compared to the control, until day 12, DIDS 0.4 μM to 83 μM) is listed as “maintained”.
As for `CCCC(=O)[O-].[Na+]` [sodium butyrate], the cell viability (commonly the share of living cells, or the viability signal relative to a control) is recorded as “less than 45%” in the series with recombinant CHO cells [4] and 15% with recombinant CHO cells [5].
